The source of these data is patent US7271260B2, “3,4-dihydroquinazoline derivatives as T-type calcium channel blockers and method of preparing the same” (Korea Institute of Science and Technology, priority 2004, dated 2007).

For experiment [1], the target named is T1, T-type calcium channel α1H (Cav3.2) (Homo sapiens, UniProt O95180).
T1 construct: expressed in transfected cells; host or cells: Xenopus laevis unfertilized oocytes injected with cRNA (pGEM-HEA linearised with AflII, T7 transcription)
T1 sequence (O95180 whole entry): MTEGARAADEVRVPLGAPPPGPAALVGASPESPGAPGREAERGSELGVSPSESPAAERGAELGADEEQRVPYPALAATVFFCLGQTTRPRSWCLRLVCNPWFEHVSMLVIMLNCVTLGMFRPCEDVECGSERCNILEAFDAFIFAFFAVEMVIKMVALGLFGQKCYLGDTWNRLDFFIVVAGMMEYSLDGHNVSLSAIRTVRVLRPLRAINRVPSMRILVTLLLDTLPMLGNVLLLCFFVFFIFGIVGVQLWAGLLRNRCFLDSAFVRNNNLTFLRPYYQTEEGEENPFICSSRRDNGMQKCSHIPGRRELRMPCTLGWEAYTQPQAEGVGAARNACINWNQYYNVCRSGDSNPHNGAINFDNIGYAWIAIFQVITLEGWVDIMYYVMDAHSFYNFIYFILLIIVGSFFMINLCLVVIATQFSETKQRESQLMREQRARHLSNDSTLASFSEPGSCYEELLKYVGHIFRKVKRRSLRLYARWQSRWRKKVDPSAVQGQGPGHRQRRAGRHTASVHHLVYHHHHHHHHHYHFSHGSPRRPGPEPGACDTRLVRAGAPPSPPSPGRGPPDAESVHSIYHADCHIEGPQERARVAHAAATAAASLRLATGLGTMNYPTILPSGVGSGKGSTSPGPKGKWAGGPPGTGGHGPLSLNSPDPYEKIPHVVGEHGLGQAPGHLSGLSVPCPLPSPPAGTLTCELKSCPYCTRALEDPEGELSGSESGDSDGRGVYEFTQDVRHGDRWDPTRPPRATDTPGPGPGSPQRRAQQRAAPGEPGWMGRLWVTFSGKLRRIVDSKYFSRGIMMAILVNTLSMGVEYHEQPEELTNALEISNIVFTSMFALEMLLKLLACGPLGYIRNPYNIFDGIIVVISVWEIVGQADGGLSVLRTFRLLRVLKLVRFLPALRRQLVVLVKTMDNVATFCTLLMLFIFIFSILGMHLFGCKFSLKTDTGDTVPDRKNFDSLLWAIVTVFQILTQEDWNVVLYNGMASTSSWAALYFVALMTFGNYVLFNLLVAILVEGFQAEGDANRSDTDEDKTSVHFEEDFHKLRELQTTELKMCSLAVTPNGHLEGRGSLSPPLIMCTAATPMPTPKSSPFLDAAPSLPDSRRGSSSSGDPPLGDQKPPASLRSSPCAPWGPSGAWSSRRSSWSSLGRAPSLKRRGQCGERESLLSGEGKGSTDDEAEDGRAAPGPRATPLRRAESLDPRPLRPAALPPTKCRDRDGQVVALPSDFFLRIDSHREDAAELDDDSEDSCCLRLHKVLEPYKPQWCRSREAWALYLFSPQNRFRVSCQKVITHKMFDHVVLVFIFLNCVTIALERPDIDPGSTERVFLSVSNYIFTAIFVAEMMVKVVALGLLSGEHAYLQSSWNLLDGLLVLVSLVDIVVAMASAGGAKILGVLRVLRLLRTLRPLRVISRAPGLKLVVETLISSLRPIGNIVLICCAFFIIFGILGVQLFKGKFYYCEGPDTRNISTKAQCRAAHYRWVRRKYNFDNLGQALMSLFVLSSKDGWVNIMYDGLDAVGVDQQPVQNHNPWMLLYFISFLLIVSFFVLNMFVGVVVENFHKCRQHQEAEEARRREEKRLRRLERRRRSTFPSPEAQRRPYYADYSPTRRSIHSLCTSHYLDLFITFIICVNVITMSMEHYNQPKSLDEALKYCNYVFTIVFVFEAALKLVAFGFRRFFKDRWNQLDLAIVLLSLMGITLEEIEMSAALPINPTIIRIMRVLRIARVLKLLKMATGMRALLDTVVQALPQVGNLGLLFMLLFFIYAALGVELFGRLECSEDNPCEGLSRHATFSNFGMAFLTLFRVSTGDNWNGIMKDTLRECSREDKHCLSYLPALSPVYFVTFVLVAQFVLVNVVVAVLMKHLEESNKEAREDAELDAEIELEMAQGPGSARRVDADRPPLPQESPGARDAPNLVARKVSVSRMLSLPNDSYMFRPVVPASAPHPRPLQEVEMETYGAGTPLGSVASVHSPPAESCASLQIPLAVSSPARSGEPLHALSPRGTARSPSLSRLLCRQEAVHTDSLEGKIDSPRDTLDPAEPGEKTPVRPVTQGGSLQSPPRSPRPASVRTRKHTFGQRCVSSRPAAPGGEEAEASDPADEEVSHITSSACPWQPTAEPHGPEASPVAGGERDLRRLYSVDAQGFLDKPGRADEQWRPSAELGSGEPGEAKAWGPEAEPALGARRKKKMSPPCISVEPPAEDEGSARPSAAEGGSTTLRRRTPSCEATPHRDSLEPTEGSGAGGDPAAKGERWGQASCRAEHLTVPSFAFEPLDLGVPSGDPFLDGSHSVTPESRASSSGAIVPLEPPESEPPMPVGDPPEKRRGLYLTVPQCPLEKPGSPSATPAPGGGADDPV
The experiment in a line: Two-electrode voltage clamp on Xenopus unfertilized oocytes expressing α1H T-type calcium channel. In kind it is cell-based. The conditions noted are these: test potential -20 mV from -90 mV; for inhibition at 100 µM: read-out: inhibitory effect (blocking percentage), Xenopus oocyte (α1H) at 100 μM. As to the method:
In order to express a gene encoding T-type calcium channel α1H (Cav3.2) (Cribbs, L. L. et al., Circ. Res., 1998, 83, 103-109) in unfertilized Xenopus oocytes, pGEM-HEA was treated with restriction enzyme AflII to obtain a DNA fragment containing 5′-terminal region having the T-type calcium channel cDNA (AF051946). cRNA having a corresponding sequence to that of the fragment was synthesized using T7 RNA polymerase according to the manufacturer's instructions (mMESSAGE mMACHINE kit, Ambion, Austin, U.S.A.). The synthesized cRNA was quantified by measuring the O.D. value with a spectrophotometer. At this time, unfertilized oocytes were prepared from female Xenopus laevis (Xenopus I, U.S.A.) according to the following method. After the frog's abdomen was incised by about 1 cm, three to four lobes were detached therefrom with scissors and separated into small pieces to which several oocytes were attached. The small pieces were hydrolyzed in OR solution (82.5 mM NaCl, 2.5 mM KCl, 1 mM MgCl2, 5 mM HEPES, pH 7.6) and supplemented with collagenase type IA (Sigma, U.S.A.) to remove defolliculation. After selecting healthy oocytes with a dissecting microscope, they were soaked in SOS solution (100 mM NaCl, 2 mM KCl, 1.8 mM CaCl2, 1 mM MgCl2, 5 mM HEPES, 2.5 mM pyruvate, […] gentamicin, pH 7.6) for 3 to 4 hours to revitalize them. 2 to 5 ng of cRNA was injected into each oocyte using Nano-injector. The oocytes were subjected to a test in order to examine the electrical properties of the channel expressed therefrom 4 to 5 days after the injection while being maintained at 18° C.
The current of the calcium channel expressed from the Xenopus unfertilized oocytes was measured according to a two-electrode voltage clamping method. The current was measured in 10 mM Ba^2+ solution (10 mM Ba(OH)2, 90 mM NaOH, 1 mM KCl, 0.1 mM EDTA, 5 mM HEPES, pH was adjusted to 7.4 with methanesulfonic acid). At this time, the voltage clamp and current measurement were regulated with an amplifier for unfertilized oocytes (Model OC-725C, Warner Instrument Corp., U.S.A.), and analog signals were converted into digital signals using Digidata 2000A (Analog-Digital converter, Axon Instrument). The acquisition, storage and analysis of all data were recorded in Pentium IV computer via pCLAMP8. The data were mainly collected at 5 KHz and filtered at 1 KHz (Model 902 filter; Frequency devices located at Harverhill, Mass., U.S.A.). The T-type current was generated by imposing test electric potential of −20 mV every 15 seconds on the unfertilized oocytes, the potential of which was fixed at −90 mV. A blocking percentage was calculated by comparing the […] before and after the drug treatment.
A general note: In two-electrode clamp one electrode senses voltage and the other passes current.

Experiment [2] concerns the target T2, α1G T-type calcium channel (Rattus norvegicus, UniProt O54898).
T2 construct: expressed in transfected cells; Perez-Reyes, University of Virginia
The experiment in a line: Whole cell patch clamp on HEK 293 cells expressing α1G T-type calcium channel. The class given is cell-based. The settings on record: for IC50: read-out: IC50, HEK293 cells (α1G). As to the method:
HEK 293 cells were cultured in Dulbecco's modified Eagle's medium (DMEM) supplemented with 10% fetal bovine serum (FBS) and 1% penicillin/streptomycin (v/v) in 36.5° C. humidified incubator (95% air-5% CO2). The culture solution was replaced with a fresh medium every 3 to 4 days and the cultured cells were subjected to sub-culture every week. At this time, the culture solution was treated with G-418 (0.5 mg/ml) solution so that only HEK 293 cells expressing α1G T-type calcium channel can grow. The cells used for the T-type calcium channel activity assay were cultured on a cover slip coated with poly-L-lysine (0.5 mg/ml) whenever sub-cultured and their calcium channel activity was recorded 2 to 7 days after the cultivation. The current of the T-type calcium channel at a single cell level was measured according to an electrophysiological whole cell patch clamping method using EPC-9 amplifier (HEKA, German). At this time, a cell exterior solution [140 mM NaCl, 2 mM CaCl2, 10 mM HEPES (pH 7.4)] and a cell interior solution [KCl 130 mM, HEPES 10 mM, EGTA 11 mM, MgATP 5 mM (pH 7.4)] were employed. The inward current caused by the T-type calcium channel activation was measured according to a T-type calcium channel protocol activated at low current. Such current occurs when the cells were converted into a whole-cell recording mode by stabbing a microglass electrode having 3-4 MΩ resistance, which was filled with the cell interior solution into a single cell and depolarized at −30 mV (50 ms duration period) every 10 seconds with fixing membrane potential to −100 mV.
In order to confirm whether the cells and methods used in Test Example 2 are a suitable screening system for selecting T-type calcium channel blockers, the results obtained in Example 2 were compared with those of α1G T-type calcium channel study reported in a public document (Monteil, A. et al., J. Biol. Chem. 275, 6090-6100, 2000). […] Thus, the candidate compounds were subjected to a test for their inhibitory effects on the T-type calcium channel according to the screening system of the present invention, as follows. Each compound was dissolved in 100% dimethylsulfoxide (DMSO) to prepare 10 mM stock solution. The inhibitory effect on the T-type calcium channel current was examined in 10 μM sample solution (containing 0.1% DMSO) prepared by diluting the stock solution by 1000-fold. The cells were treated with each compound at a concentration of 10 μM for 30 to 60 sec with the cell exterior solution.

Where [3] appears, read: HEK293, read-out: inhibitory effect on peak current, HEK293 cells (α1G) at 10 μM.
Where [4] appears, read: HEK293, 10 μM, HEK 293 cells expressing α1G, 30 to 60 sec treatment, read-out: inhibitory effect on peak current, HEK293 cells (α1G) at 10 μM.

SMILES strings stand for the structures. Where two headings read alike, the source gives them in different places.

T2 sequence (O54898 whole entry): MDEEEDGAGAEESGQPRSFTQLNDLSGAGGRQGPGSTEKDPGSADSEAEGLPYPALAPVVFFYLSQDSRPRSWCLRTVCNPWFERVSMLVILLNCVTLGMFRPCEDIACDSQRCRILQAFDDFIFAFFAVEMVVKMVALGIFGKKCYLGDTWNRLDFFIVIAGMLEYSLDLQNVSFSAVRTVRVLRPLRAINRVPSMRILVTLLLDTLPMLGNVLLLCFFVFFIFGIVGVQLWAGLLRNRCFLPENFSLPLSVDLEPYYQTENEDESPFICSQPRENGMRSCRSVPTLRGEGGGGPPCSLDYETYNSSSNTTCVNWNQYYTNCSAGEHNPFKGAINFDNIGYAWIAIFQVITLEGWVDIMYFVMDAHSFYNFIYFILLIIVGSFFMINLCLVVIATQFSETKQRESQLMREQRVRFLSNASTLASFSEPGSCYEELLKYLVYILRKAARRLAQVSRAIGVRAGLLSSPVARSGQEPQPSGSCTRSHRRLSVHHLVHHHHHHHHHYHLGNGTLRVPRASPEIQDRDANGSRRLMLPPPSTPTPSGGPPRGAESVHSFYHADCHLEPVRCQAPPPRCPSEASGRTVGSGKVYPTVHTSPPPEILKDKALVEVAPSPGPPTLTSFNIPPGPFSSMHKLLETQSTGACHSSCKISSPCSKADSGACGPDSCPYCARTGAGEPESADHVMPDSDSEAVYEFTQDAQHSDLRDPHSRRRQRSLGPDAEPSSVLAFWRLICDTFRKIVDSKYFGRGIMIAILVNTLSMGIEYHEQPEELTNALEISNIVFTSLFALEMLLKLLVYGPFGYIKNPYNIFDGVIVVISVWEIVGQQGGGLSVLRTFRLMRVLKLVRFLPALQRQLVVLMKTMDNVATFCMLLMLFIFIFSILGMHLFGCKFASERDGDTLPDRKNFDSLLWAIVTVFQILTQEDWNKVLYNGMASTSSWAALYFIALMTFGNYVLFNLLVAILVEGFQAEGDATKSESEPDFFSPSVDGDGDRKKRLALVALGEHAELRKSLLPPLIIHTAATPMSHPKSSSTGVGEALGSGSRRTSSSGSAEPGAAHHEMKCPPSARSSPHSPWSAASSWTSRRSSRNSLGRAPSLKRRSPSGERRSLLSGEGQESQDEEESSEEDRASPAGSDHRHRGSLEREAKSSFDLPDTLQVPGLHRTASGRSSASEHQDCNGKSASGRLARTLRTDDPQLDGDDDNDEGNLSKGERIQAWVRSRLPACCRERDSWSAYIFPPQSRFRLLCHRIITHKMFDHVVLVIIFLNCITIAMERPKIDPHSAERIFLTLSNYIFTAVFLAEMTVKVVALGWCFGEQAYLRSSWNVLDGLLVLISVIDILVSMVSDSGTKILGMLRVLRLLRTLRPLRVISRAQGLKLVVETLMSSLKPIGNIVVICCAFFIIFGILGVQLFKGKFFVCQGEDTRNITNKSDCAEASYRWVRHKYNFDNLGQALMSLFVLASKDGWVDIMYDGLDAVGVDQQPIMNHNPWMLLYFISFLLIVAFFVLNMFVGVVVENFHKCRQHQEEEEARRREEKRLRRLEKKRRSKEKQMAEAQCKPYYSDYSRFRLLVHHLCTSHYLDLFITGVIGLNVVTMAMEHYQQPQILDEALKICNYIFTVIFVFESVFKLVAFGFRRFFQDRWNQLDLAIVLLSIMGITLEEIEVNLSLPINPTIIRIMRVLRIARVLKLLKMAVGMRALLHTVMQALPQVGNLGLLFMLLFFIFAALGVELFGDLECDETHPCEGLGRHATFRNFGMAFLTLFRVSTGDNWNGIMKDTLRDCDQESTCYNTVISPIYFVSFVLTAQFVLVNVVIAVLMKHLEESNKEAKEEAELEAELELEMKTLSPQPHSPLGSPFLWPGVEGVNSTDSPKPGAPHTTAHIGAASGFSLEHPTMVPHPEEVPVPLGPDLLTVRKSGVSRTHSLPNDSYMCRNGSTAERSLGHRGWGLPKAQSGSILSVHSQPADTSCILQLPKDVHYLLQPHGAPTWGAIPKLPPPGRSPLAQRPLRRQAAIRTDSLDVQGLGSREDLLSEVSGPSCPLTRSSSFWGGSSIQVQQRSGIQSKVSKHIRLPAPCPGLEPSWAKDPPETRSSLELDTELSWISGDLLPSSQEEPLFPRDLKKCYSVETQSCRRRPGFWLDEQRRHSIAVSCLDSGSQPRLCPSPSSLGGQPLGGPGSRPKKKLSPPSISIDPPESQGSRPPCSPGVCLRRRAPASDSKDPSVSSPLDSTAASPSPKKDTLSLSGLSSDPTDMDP

For the compound `COCC(=O)O[C@]1(CCN(C)CCCc2nc3ccccc3[nH]2)CCc2cc(F)ccc2[C@@H]1C(C)C` [Mibefradil, reference compound], in experiment [1], the “inhibitory effect (blocking percentage), Xenopus oocyte (α1H) at 100 μM” value is recorded as 86.0% and the inhibition at 100 µM amounted to 86%.

Consider `CN1CCN(C2=Nc3ccccc3C(CC(=O)OCc3ccccc3)N2c2ccccc2)CC1` (stereo not shown) [Compound 05029], for which the inhibition at 100 µM in experiment [1] turned out to be 32.7%.

As for `CN1CCN(C2=Nc3ccccc3C(CC(=O)NCc3ccccc3)N2c2ccccc2)CC1` (stereo not shown) [KYS05028, 4-(N-benzylacetamido)-3-phenyl-2-(4-methylpiperazinyl)-3,4-dihydroquinazoline], the inhibition at 100 µM in experiment [1] is 70.3%. Further, the inhibition at 10 µM in experiment [2] (setting [3]) amounted to 29%. For the same compound, in experiment [2] (HEK 293 cells expressing α1G), the IC50 (as a rule, the concentration needed to halve the response being measured) was found to be 35.8 µM.

In the case of `Nc1ccc(CNC(=O)CC2c3ccccc3N=C(N3CCCCC3)N2c2ccccc2)cc1` (stereo not shown) [Compound 05040], in experiment [1], the inhibition at 100 µM is 66.8%. Also, the inhibition at 10 µM in experiment [2] (setting [4]) was determined as 43.5%. In addition, the IC50 in experiment [2] (HEK 293 cells expressing α1G) is 14.4 µM.

For the compound `O=C(CC1c2ccccc2N=C(c2ccccc2)N1c1ccccc1)NCc1ccccc1` (stereo not shown) [Compound 05031], the inhibition at 100 µM in experiment [1] amounted to 14.8%.

With `O=C(CC1c2ccccc2N=C(N2CCOCC2)N1c1ccccc1)NCc1ccccc1` (stereo not shown) [KYS05026, 4-(N-benzylacetamido)-3-phenyl-2-(morpholin-1-yl)-3,4-dihydroquinazoline], the inhibition at 100 µM in experiment [1] was 63.8%. Also, in experiment [2] (setting [4]), the inhibition at 10 µM stood at 40.5%. Also, in experiment [2] (HEK 293 cells expressing α1G), the IC50 came out at 21.6 µM.

On to `O=C(CC1c2ccccc2N=C(c2ccccc2)N1c1ccccc1)OCc1ccccc1` (stereo not shown) [Compound 05032], for which the inhibition at 100 µM in experiment [1] was determined as 14.2%.

Take `O=C(CC1c2ccccc2N=C(N2CCOCC2)N1c1ccccc1)OCc1ccccc1` (stereo not shown) [Compound 05027]: the inhibition at 100 µM in experiment [1] was 20.9%.

On to `CCO/C(O)=C(\C#N)C1=Nc2ccccc2C(CC(=O)OC)N1c1ccccc1` (stereo not shown) [Compound 05033], for which the inhibition at 100 µM in experiment [1] worked out at 38.9%.

As for `O=C(CC1c2ccccc2N=C(N2CCCCC2)N1c1ccccc1)NCc1ccc([N+](=O)[O-])cc1` (stereo not shown) [KYS05034, 4-[N-(4-nitrobenzyl)acetamido]-3-phenyl-2-(piperidine-1-yl)-3,4-dihydroquinazoline], the inhibition at 100 µM in experiment [1] came to 91.9%. Also, the inhibition at 10 µM in experiment [2] (setting [3]) was 92.3%. Further, the 50% inhibitory concentration (IC50) in experiment [2] (HEK 293 cells expressing α1G) worked out at 2.5 µM.
